Assays:
[1] = tested on: Metaphase II porcine oocytes; experiment: Parthenogenetic activation of porcine oocytes by TPEN alone; assay type: cell-based, pig
Method: Oocytes were obtained from either pre-pubertal gilt ovaries from an abattoir (Farmland Foods Inc., Milan, Mo.), or sow-derived oocytes that were purchased from Applied Reproductive Technology (Madison, Wis.). Immature oocytes from gilt ovaries were aspirated from medium size (3-6 mm) follicles by using an 18 gauge hypodermic needle attached to a 10 mL syringe. Oocytes with evenly dark cytoplasm and intact surrounding cumulus cells were then selected for maturation. Around 50 cumulus oocyte complexes were place in a well containing 500 μL of maturation medium, TCM 199 (Invitrogen, Grand Island, N.Y.) with 3.05 mM glucose, 0.91 mM sodium pyruvate, 0.57 mM cysteine, 10 ng/mL epidermal growth factor (EGF), 0.5 mg/mL luteinizing hormone (LH), 0.5 mg/mL follicle stimulating hormone (FSH), 10 ng/mL gentamicin (APP Pharm, Schaumburg, Ill.), and 0.1% polyvinyl alcohol (PVA) for 42-44 hr at 38.5° C., 5% CO2, in humidified air. The oocytes from sows were shipped overnight in maturation medium (TCM199 with 2.9 mM Hepes, […], 10 ng/mL EGF, 0.5 mg/mL p-FSH, 0.91 mM pyruvate, 0.5 mM cysteine, 10% porcine follicular fluid, 25 ng/mL gentamicin) and transferred into fresh medium at 24 hr. At the end of the maturation, the surrounding cumulus cells were removed from the oocytes by vortexing for 3 min in the presence of 0.1% hyaluronidase. Oocytes with a visible polar body were selected in manipulation medium (TCM199 with 0.6 mM NaHCO3, 2.9 mM Hepes, 30 mM NaCl, 10 ng/mL gentamicin, and 3 mg/mL bovine serum albumin [BSA]; and osmolarity of 305) and then used for the experiments. Different oocyte activation methods were used for the experiments. As conventional activation methods, either electrical or chemical activation was used. For electrical activation, mature oocytes were activated in activation medium (0.3 M mannitol, 1.0 mM CaCl2, 0.1 mM MgCl2, and 0.5 mM Hepes) by two direct-current (DC) pulses (1-sec interval) at 1.2 kV/cm for 30 μsec (using BTX Electro Cell Manipulator, Harvard Apparatus, Holliston, Mass.). […] For TPEN mediated activation, mature oocytes were incubated in TL-Hepes media with various concentrations of TPEN for different durations. […] At the end of the culture, where applicable, the frequency of cleaved embryos and blastocysts, and total cell number in the blastocysts were recorded. Hoechst 33342 (1.2 mg/mL) was used to stain nuclei and the embryos were then evaluated by epi-fluorescence microscopy. Metaphase II porcine oocytes were incubated in vitro with TPEN to determine if the concentration/duration of 100 μM of TPEN for 45 min, as described in the mouse study by Suzuki, et al. (Development 137, 2659-2669, 2010) had any effect on pig oocytes. […] A wide range of TPEN concentrations/durations was tested to identify an optimum concentration of TPEN that can activate pig oocytes; 100 μM, 200 μM, and 250 μM and 30 min-2.5 hours of duration were tested (Table 1). Optimum embryo development was achieved by using 200 μM TPEN for 30 min.

[2] = tested on: SCNT embryos transferred into surrogate gilt; experiment: Embryo transfer, in vivo development competence of SCNT embryos
Method: To address in vivo competency of SCNT embryos activated by utilizing TPEN, a series of embryo transfers were performed. For the study, at day 1, the SCNT-derived embryos were surgically transferred into the ampullary-isthmic junction of a surrogate gilt at 0 or 1 days after observed estrus. At the end of gestation periods, piglets were recovered through C-section.
Six embryo transfers were performed for the study and two surrogates carried their pregnancy to term, each resulting in two healthy piglets (Table 6). One of the term development was from SCNT embryos that were not treated with a HDAC inhibitor, Scriptaid.

c1ccc(CN(CCN(Cc2ccccn2)Cc2ccccn2)Cc2ccccn2)nc1 [TPEN, N,N,N′,N′-tetrakis(2-pyridylmethyl)ethane-1,2-diamine] was tested, and the “Frequency of forming blastocysts on day 7” value ([1]; 100 μM of TPEN for 45 min) was 13%, the “blastocyst formation on day 5” value ([1]; 100 μM of TPEN for 45 min) was “No blastocyst formation was observed” and the “expanded blastocysts on day 7” value ([1]; 100 μM of TPEN for 45 min) was “no expanded blastocysts”. For the same compound, the “toxic effect on embryo development” value ([1]; 250 μM TPEN over 2.5 hours) was “toxic effect”, the “% blastocysts” value ([1]; TPEN alone, 100 μM, 2 hr) was 12.0% and the “% blastocysts” value ([1]; TPEN alone, 200 μM, 30 min) was 23.0%. The “total number of nuclei in blastocysts” value ([1]; TPEN alone, 200 μM, 30 min) was 27.2±1.92, the “% blastocysts” value ([1]; TPEN alone, 200 μM, 1 hr) was 20.0% and the “% blastocysts” value ([1]; TPEN alone, 250 μM, 2 hr) was 10.0%. For the same compound, the “Result of embryo transfer” value ([2]; SCNT + 5 μM TPEN, 30 min + Scriptaid) was 2 normal piglets were and Cycled, the “Result of embryo transfer” value ([2]; SCNT + 5 μM TPEN, 30 min, no Scriptaid) was 2 normal piglets were and Cycled and the “Result of embryo transfer” value ([2]; SCNT + 10 μM TPEN, 10 min + Scriptaid) was “Cycled”. For the same compound, the “toxicity to SCNT embryos, full term development” value ([2]; embryo transfers of TPEN treated SCNT embryos) was “not toxic to the SCNT embryos”.

Source: patent publication US10190093B2, “Artificial oocyte activation” (The Curators of the University of Missouri, priority 2013, dated 2019)
